In patent US20250134903A1, “COMPOSITIONS AND METHODS FOR TREATING PAIN” (priority 2023, published 2025):
Entries after “also recorded” stand apart in the source; their conditions may differ.

What was measured:
[1] = biological target: histamine H1-receptor (Homo sapiens, UniProt P35367); settings: more potent; cited from earlier work
[2] = 5% lidocaine plaster applied to skin; cited from earlier work
[3] = biological target: mu-opioid receptors (Homo sapiens, UniProt P35372); settings: cited from earlier work
[4] = tested on: classic TN; settings: 100-400 mg/d; 8 patients with classic TN; cited from earlier work
[5] = tested on: patients suffering from trigeminal neuralgia (TN); experiment: Non-randomized clinical observations of Trimeprazine in patients (n=7) with trigeminal neuralgia; assay type: in vivo, human; settings: for overall efficacy on TN pain: seven TN patients, non-randomized
Excerpt: A middle-aged patient suffers from classic trigeminal (Type 1) neuralgia presenting with sharp, lancinating, severe pain in their left face precipitated by showering, eating, facial animation, touch of their facial skin and nose, and brushing their teeth. The episodes of pain are initiated by the stimuli above and immediately stop all other activity until they subside in several seconds. Their behavior is modified to avoid the stimuli above, even affecting how they speak and eats. […] Their daily activities are dominated by fear of inducing another attack.
The patient began treatment with Trimeprazine 5 mg morning and evening.
The disease had caused cutaneous anesthesia in the right forehead and cheek. […] Beginning at about 19 years after the bout of Lyme disease they noted sharp lightning-like pains in their right cheek. Brief and usually during cutaneous stimulation, like being in a shower. There were perhaps one or two of these occurrences per year. At 22 years after the initial Lyme disease, they experienced a severe attack of Trigeminal Neuralgia (TN) affecting their right cheek (Type 1). There were on average 8 bouts of severe stabbing pain per day precipitated by facial animation, touching, opening their mouth to eat, brushing their teeth, and even a gust of cold wind. They treated themself with doxycycline, fearing a reactivation of Lyme disease.
They were quite miserable, being unable to even brush their teeth without precipitating a severe bout of pain.
Patient is a person who suffers from TN which began 3 years ago after a dental procedure. The TN was manifest by sharp, lancinating pain in the left side of their jaw (Type. 1). These periods of pain were episodic, precipitated by stimuli like brushing their teeth, at least once per day, with periods of vulnerability lasting 3-4 weeks each occurring 3-4 times per year. Their parent had suffered with the same pattern of TN. When started on Trimeprazine they were also taking Pregabalin.
Patient is a young person who developed severe ophthalmic herpes zoster involving the right side of their face and their right eye. They had extensive ocular involvement requiring medications for a full year. Their corneal difficulties were accompanied by a severe lingering neuralgia in the affected ophthalmic distribution of the trigeminal nerve (Type 2), which plagued their every waking hour. They were on 12 medications including carbamazepine 200 mg BID and pregabalin 150 mg TID, ophthalmic medications, and oxycodone as needed for pain relief.
This patient suffered from shingles on their forehead which was followed by lingering neuralgia in the affected ophthalmic distribution of the trigeminal nerve.

[6] = cited from earlier work
[7] = tested on: TN; settings: 23 patients; add-on therapy; cited from earlier work
[8] = tested on: TN; settings: 10 patients with TN; cited from earlier work
[9] = tested on: PHN; settings: in vivo; cited from earlier work
[10] = tested on: PHN symptoms; settings: human, in vivo; cited from earlier work
[11] = tested on: post-herpetic neuralgia (PHN) pain; experiment: Applicant's clinical observations of Trimeprazine tartrate in post-herpetic neuralgia; assay type: in vivo, human; settings: not a randomized clinical trial
Excerpt: While the clinical observations are not from a randomized clinical trial and could be subject to placebo effects and other confounders, they offer a promising finding for this devastating facial pain condition.

[12] = Example 5, four months or so after

histamine H1-receptor, sequence (P35367 whole entry, species assumed): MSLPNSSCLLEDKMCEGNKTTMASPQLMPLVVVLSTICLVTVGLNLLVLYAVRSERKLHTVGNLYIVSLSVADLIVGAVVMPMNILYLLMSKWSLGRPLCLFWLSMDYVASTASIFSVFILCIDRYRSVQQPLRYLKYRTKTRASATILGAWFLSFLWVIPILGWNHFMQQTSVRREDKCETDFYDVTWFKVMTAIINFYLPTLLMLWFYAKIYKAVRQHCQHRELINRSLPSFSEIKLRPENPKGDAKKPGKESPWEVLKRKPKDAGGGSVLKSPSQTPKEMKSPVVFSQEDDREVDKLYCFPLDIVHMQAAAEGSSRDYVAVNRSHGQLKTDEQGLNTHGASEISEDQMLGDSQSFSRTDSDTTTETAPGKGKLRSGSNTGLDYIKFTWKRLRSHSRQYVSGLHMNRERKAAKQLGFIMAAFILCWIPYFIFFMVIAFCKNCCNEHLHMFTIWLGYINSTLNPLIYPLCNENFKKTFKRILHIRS
mu-opioid receptors, sequence (P35372 whole entry): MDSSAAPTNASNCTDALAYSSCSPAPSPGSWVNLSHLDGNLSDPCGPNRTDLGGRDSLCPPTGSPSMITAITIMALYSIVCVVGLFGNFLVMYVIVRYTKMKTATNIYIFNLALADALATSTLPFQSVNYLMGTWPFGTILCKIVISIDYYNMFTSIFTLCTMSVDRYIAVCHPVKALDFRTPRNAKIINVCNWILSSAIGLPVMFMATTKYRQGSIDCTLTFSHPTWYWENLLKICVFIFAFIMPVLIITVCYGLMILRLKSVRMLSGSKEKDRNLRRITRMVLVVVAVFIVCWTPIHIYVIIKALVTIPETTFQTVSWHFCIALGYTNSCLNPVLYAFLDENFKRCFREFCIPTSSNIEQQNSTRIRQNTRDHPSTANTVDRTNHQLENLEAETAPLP

Compound: Cc1ccc(/C(=C\CN2CCCC2)c2ccccn2)cc1 [E-triprolidine]
- potency relative to Z-triprolidine [1]: 1000 fold

Compound: CCN(CC)CC(=O)Nc1c(C)cccc1C [Lidocaine]
- fraction of the drug reaching the systemic circulation [2]: 3%

Compound: CC[C@@H](c1cccc(O)c1)[C@@H](C)CN(C)C [Tapentadol]
- times less potent than morphine in binding mu-opioid receptors [3]: 18 times

Compound: CC1(C)O[C@@H]2[C@@H](CO[C@@]3(COS(N)(=O)=O)OC(C)(C)O[C@@H]23)O1 [Topiramate]
- patients in whom found effective [4]: 75%

Compound: CC(CN(C)C)CN1c2ccccc2Sc2ccccc21 (stereo not shown) [Trimeprazine]
- pain ([5]; Example 1, TN Type 1, 5 mg morning and evening, after four days of medication): all pain was gone
- intensity and frequency of the attacks ([5]; Example 1, middle-aged male, TN Type 1, 5 mg morning and evening, second day of the course): in decline
- side-effects ([5]; Example 1, 5 mg): no side-effects other than drowsiness
- later discomfort in face ([5]; Example 1, ½ to 1 pill of 5 mg once or twice a day): successfully alleviated
- recurring sharp pains ([5]; Example 2, person, TN Type 1, recurrences at seven and eleven months after the TN attack, 5 mg twice a day): immediately stop all recurring pains
- recurrent attacks of TN ([5]; Example 2, in the 12 months since the last treatment): no recurrent attacks of TN
- pain ([5]; Example 3, elderly male, TN Type 1 uncontrolled with carbamazepine and gabapentin, 5 mg twice a day, by ten days after starting treatment): essentially pain free
- duration of relief ([5]; Example 3, 5 mg twice a day): enduring
- tolerability ([5]; Example 3, 5 mg twice a day): except for some drowsiness, tolerated the medicine well
- jaw pain ([5]; Example 4, person, TN Type 1, also taking Pregabalin, after a first course of 10 days, 5 mg BID): jaw pain was gone
- sensitive area on the side of head above ear ([5]; Example 4, second course 5 mg BID for several days): disappeared entirely
- improvement of neuralgia ([5]; Example 5, young person, TN Type 2 after ophthalmic herpes zoster, by 5 days after starting the medication): some improvement
- average pain (patient-reported) [5, 12]: 2
- max pain (patient-reported) [5, 12]: 5
- patient-reported relief of head pain ([5]; Example 6, TN Type 2 after shingles, 5 mg BID, by 6 days after starting): it does help my head
- Clinical Outcome ([5]; Patient 1, TN Type 1): Relief, no additional
- Comment ([5]; Patient 1, TN Type 1): Pain gone day 3
- Clinical Outcome ([5]; Patient 2, TN Type 1): Relief, no additional
- Comment ([5]; Patient 2, TN Type 1): 3 subsequent attacks
- Clinical Outcome ([5]; Patient 3, TN Type 1): Relief, no additional
- Comment ([5]; Patient 3, TN Type 1): “So nice to be pain
- Clinical Outcome ([5]; Patient 4, TN Type 1): Relief, no additional
- Comment ([5]; Patient 4, TN Type 1): Facial pain gone
- Comment ([5]; Patient 5, TN Type 2): Better and continuing
- Clinical Outcome ([5]; Patient 6, TN Type 2): Better, can travel
- Clinical Outcome ([5]; Patient 7, TN Type 2): Better, no additional
- Comment ([5]; Patient 7, TN Type 2): “No bother now”
- overall efficacy on TN pain [5]: demonstrated efficacy; also recorded: significant pain relief
- overall efficacy on TN pain ([5]; listed as trimeprazine): reduced or relieved
- patients with long-term pain relief, no recurrence of symptoms for over 12 months ([5]; subset of TN patients treated with Trimeprazine): two out of seven
- LogP [6]: 4.71

Compound: CC[C@@H](C(N)=O)N1CCCC1=O [levetiracetam]
- reduction in number of daily attacks [7]: 62%
- improvement [8]: 50-90%

Compound: CC(C)C[C@H](CN)CC(=O)O [pregabalin]
- analgesic property relative to gabapentin [9]: 6 times

Compound: Botulinum Toxin A [BTX-A]
- cases in which effective in reducing pain [10]: 31%
- cases with significant outcomes [10]: 46.6%
- side effects [10]: mild

Compound: Trimeprazine tartrate
- effectiveness on PHN pain [11]: effectiveness in alleviating pain
- overall efficacy on TN pain [5]: effectiveness in alleviating pain
